The values that follow come from US6608111B1, “Method for treating or preventing prostatic conditions” (Southern Illinois University Office of Research, …, priority 1998, dated 2003).

“Also recorded” adds a separate entry of the source.

In series [1] the test system is MCF-7 human mammary cancer cell line. To be noted: human MCF-7 cells in culture; cited from earlier work.
Series [2] concerns women. The conditions noted are these: clinical; cited from earlier work.
Series [3] relates to rats, cats, chicks, and guinea pigs. To be noted: animals including rats; cited from earlier work.
The conditions of series [4]: even at 1000-times the estrogenic dosage; cited from earlier work.
The conditions of series [5]: in vivo assays, compared with estradiol; cited from earlier work.
The test system of series [6] is male and female Wistar rats. The experiment in a line: Experiment 2: chronic treatment of male and female rats, 5-6 weeks. It is filed as in vivo, rat. The conditions noted are these: for Food intake: n = 5. The protocol:
Twenty-five male and 25 female Wistar rats, 7-8 weeks of age, were randomly assigned to groups of five animals, respectively, for treatment with vehicle only (V), estradiol (E), (±)-Z-BDDA, (+)-Z-BDDA, or (−)-Z-BDDA. Each animal in group V received a daily 0.1 cc injection of a 10% ethanol-90% olive oil solution; the other treatments received their respective compound as a daily 0.1 cc injection, e.g., 2.5 μg of compound/g of body weight, in a 10% ethanol-90% olive oil solution. A temperature of 21° C. and an artificial 12-h light-dark cycle were maintained in the animal room. All animals were maintained on standard chow in powdered form, the males for five weeks and the females for six weeks, then sacrificed after an overnight fast under i.p. pentobarbital anesthesia (50 mg/kg). Animal weight and food intake were measured weekly during the study and subsequent FER values were determined. During sacrifice, blood was collected (via cardiac puncture) for glucose, luteinizing hormone, prolactin and testosterone measurements. The amounts of luteinizing hormone, prolactin and testosterone were measured to help elucidate the target tissue of the respective compounds in male and female rats. Immediately following sacrifice the fat pads and reproductive organs were removed and weighed.
(§1) Experiments 1 and 2 employed a randomized design. All data were analyzed by one-way analysis of variance (ANOVA,)and post-hoc comparisons were made with Tukey pairwise comparisons test. Significance was confirmed at p≦0.05 (SYSTAT 7.0, SPSS INC., 1997), and all values are reported as means±standard error of the mean.

Series [7] has as its system female mice. The conditions noted are these: E2 5 g/animal/day, (±)-Z-BDDA 5, 50, and 500 g/animal/day, versus control group; cited from earlier work.
Series [8] has as its system uterine cytosolic estrogen receptors (ER). To be noted: competitive binding-inhibition, relative to E2; cited from earlier work.
Series [9] has as its system male and female Sprague-Dawley rats. Put plainly: Experiment 1: chronic treatment of male and female rats, 4 weeks. It is filed as in vivo, rat. To be noted: mean ± SEM; for Food intake: n = 5. As for the experimental part: Twenty-five male and 25 female Sprague-Dawley rats, 9-10 weeks of age, were randomly assigned to groups of five animals, respectively, as a control group (no treatment) (C), for treatment with vehicle only (V), estradiol (E), (±)-Z-BDDA, or (+)-Z-BDDA. Each animal in group V received a daily 0.1 cc injection of a 10% ethanol-90% olive oil solution; the other treatments received their respective compound as a daily 0.1 cc injection, e.g., 2.5 μg of compound/g of body weight, in a 10% ethanol-90% olive oil solution. A temperature of 21° C. and an artificial 12-h light-dark cycle was maintained in the animal room. All animals were maintained on standard chow in powdered form for four weeks, then sacrificed after an overnight fast under i.p. pentobarbital anesthesia (50 mg/kg). Animal weight and food intake were measured weekly during the study, and the subsequent food-efficiency ratio [FER(g of weight change/g of food intake)] was determined. During sacrifice, blood was collected (via cardiac puncture) for cholesterol measurements. Immediately following sacrifice the fat pads and reproductive organs were removed and weighed.
as §1

Setting [10] is: female rats, 2.5 ug/g of body weight daily, six weeks, mean ± SEM.
Where [11] appears, read: male rats, 2.5 ug/g of body weight daily, five weeks, mean ± SEM.
Where [12] appears, read: female rats, 2.5 ug/g of body weight daily.
Setting [13] is: male rats, 2.5 ug/g of body weight daily.

For `CC[C@@H](c1ccc2cc(OC)ccc2c1)C(C)(C)C(=O)O` [compound 2, (−)-3-[2-(6-methoxynaphthyl)]-2,2-dimethyl-pentanoic acid], the “MCF-7 cell proliferation (estrogenicity)” value in series [1] was “very little effect”. The “estrogenic response in women / humans” value in [2] was “high dosages were required to elicit strong estrogenic responses”. The “estrogenic activity (estrogenicity) in animals” value in [3] is “strongest estrogenic activity; also recorded: highly estrogenic in animals, equivalent to 17β-estradiol”.

Consider “(±)-Z-bisdehydrodoisynolic acid [(±)-Z-BDDA]”, for which the “MCF-7 cell proliferation (estrogenicity)” value in series [1] is listed as “high estrogenic potency”. In addition, the toxicity and carcinogenicity result in [4] is listed as “neither toxicity nor carcinogenicity”. Besides, the “estrogenicity: vaginal cornification and uterotropism” value in series [5] is “rivaling or even surpassing estradiol”. Also, the “Uterus/testis weight (g)” value is recorded as 4.25 ± 1.04^1 g in [6] (female rats (uterus), 2.5 ug/g of body weight daily, six weeks, mean ± SEM); 0.78 ± 0.02^1 g in series [6] (male rats (testis), 2.5 ug/g of body weight daily, five weeks, mean ± SEM); 2.04 ± 0.45^1 g in series [9] (female rats (uterus), 2.5 ug/g of body weight daily); 0.72 ± 0.06^1,2 g in series [9] (male rats (testis), 2.5 ug/g of body weight daily). Further, the “Blood glucose” value in series [6] (setting [10]) stood at 80.40 ± 5.66 mg/dL; in [6] (setting [11]) it was 98.60 ± 14.00 mg/dL. Moreover, the “FER (food efficiency ratio)” value in series [6] (setting [10]) is recorded as 0.017 ± 0.003^1,2; in series [6] (setting [11]), −0.04 ± 0.01^1,2; in [9] (female rats, 2.5 ug/g of body weight daily, g of weight change/g of food intake), −0.023 ± 0.027^1; in series [9] (setting [13]), −0.099 ± 0.009^1,2. Further, the “Food intake” value is given as 704.0 ± 51.7 g in [6] (setting [10]); 530.0 ± 33.0 g in [6] (setting [11]); 318.2 ± 21.8 g in series [9] (female rats, 2.5 ug/g of body weight daily injection); 344.6 ± 15.5 g in [9] (setting [13]). For the same molecule, the “weight gain (percent weight change)” value in series [6] (female rats, both experiments (FIGS. 2 and 3), 2.5 μg/g daily) was “repress weight gain slightly more than did (+)-Z-BDDA and E2”. Moreover, the testosterone entry in series [6] (male rats, 2.5 μg/g daily, compared to the vehicle) is “less pronounced”. In addition, in series [6] (setting [11]), the “Prostate weight” value is recorded as 0.16 ± 0.02 g. In [7], the “rate of weight gain” value was “diminished”. The “binding affinity as fraction of that of E2” value in [8] is on record as 0.01-0.03. The “Cholesterol (mg/dl)” value was 30.1 ± 2.8^1 mg/dl in series [9] (setting [12]) and 36.2 ± 2.6^1,2 mg/dl in [9] (setting [13]). In addition, the “Visceral fat” value in series [9] (setting [12]) worked out at 1.3 ± 0.1 g. Moreover, the “Prostate weight (g)” value in series [9] (setting [13]) is on record as 0.08 ± 0.02^1,2 g. Also, in [9] (setting [13]), the “Visceral fat (g)” value was 4.5 ± 0.4^2 g.
